Laboratory results as given in ChEMBL document CHEMBL1129417, “Glucose transport-enhancing and hypoglycemic activity of 2-methyl-2-phenoxy-3-phenylpropanoic acids” (1996).
Several values for one entry are separate records, joined by “and”; a condition that tells them apart may be missing. Equal entries are not always repeated.

Assays:
Assay type in all cases: functional
Mus musculus [1] = experiment: In vivo hypoglycemic activity expressed as glucose lowering relative to positive control in 6-8 week old C57BL/6J ob/ob mouse at 10 mg/kg
Mus musculus [2] = experiment: In vivo hypoglycemic activity expressed as glucose lowering relative to positive control in 6-8 week old C57BL/6J ob/ob mouse at 1 mg/kg.
Mus musculus [3] = experiment: In vivo hypoglycemic activity expressed as glucose lowering relative to positive control in 6-8 week old C57BL/6J ob/ob mouse at 5 mg/kg.
Rattus norvegicus = organism: Rattus norvegicus; experiment: Inhibition of gluconeogenesis in rat
3T3-L1 [4] = experiment: Acute effects in vitro by measuring 2-deoxyglucose (2DG) uptake in vehicle treated 3T3-L1 adipocytes at 30 uM dose.
3T3-L1 [5] = experiment: In vitro measurements of 2-Deoxyglucose (2DG) uptake in vehicle treated 3T3-L1 adipocytes at 60 uM dose.
3T3-L1 [6] = experiment: Acute effects in vitro by measuring 2-deoxyglucose (2DG) uptake in vehicle treated 3T3-L1 adipocytes at 10 uM dose.
3T3-L1 [7] = experiment: In vitro by measurements of 2-Deoxyglucose (2DG) uptake in vehicle treated 3T3-L1 adipocytes at 3 uM dose.
Mus musculus [8] = experiment: compound was tested in vivo for hypoglycemic activity expressed as Glucose lowering relative to positive control in 6-8 week old C57BL/6J ob/ob mouse at 50 mg/kg
3T3-L1 [9] = experiment: In vitro measurements 2-Deoxyglucose (2DG) uptake in vehicle treated 3T3-L1 adipocytes at 100 uM dose.
[10] = Rattus norvegicus, read-out: ED50

| SMILES | Hypoglycemic activity (Mus musculus [1]) [%] | Hypoglycemic activity (Mus musculus [3]) [%] | ED50 (Rattus norvegicus; [10]) [mg/kg] | Basal uptake (3T3-L1 [4]) | Basal uptake (3T3-L1 [6]) [%] | other results |
| --- | --- | --- | --- | --- | --- | --- |
| CCc1ccc(CC(C)(Oc2ccc(Cc3ccccc3)cc2)C(=O)[O-])cc1.[Na+] (stereo not given) | 107 | 104 | 1 | – | – | Hypoglycemic activity (Mus musculus [2]): 44% |
| CC(Cc1ccc(Cl)cc1)(Oc1ccc(Cc2ccccc2)cc1)C(=O)[O-].[Na+] (stereo not given) | 96 | 100 | 1 | 109% | – | Basal uptake (3T3-L1 [5]): 214%; Hypoglycemic activity (Mus musculus [2]): 44% |
| Cc1cc(C)c(CC(C)(Oc2ccc(C(C)C)cc2)C(=O)[O-])c(C)c1.[Na+] (stereo not given) | 77 | – | < 10 | 106% | 148 | Basal uptake (3T3-L1 [5]): 173% |
| CC(C)c1ccc(OC(C)(COP(=O)([O-])[O-])Cc2ccc(Cl)cc2)cc1.[Ca+2] (stereo not given) | 50 | – | > 10 | – | – | – |
| CC(C)c1ccc(OC(C)(Cc2ccc3ccccc3c2)C(=O)O)cc1 (stereo not given) | 46 | – | > 10 | – | – | – |
| COc1ccc(S(=O)(=O)NC(=O)C(C)(Oc2ccc(C(C)C)cc2)C(C)c2ccc(Cl)cc2)cc1 (stereo not given) | 16 | – | > 10 | 162% | 113 | Basal uptake (3T3-L1 [7]): 130% |
| CCc1ccc(CC(C)(Oc2ccc(C(C)C)cc2)C(=O)NS(=O)(=O)C(F)(F)F)cc1 (stereo not given) | 27 | – | > 10 | – | – | – |
| CC(C)c1ccc(OC(C)(Cc2ccc3c(c2)CCCC3)C(=O)[O-])cc1.[Na+] (stereo not given) | 99 | 75 | < 5 | – | – | – |
| CC(C)c1ccc(OC(C)(Cc2ccc(C(C)(C)C)cc2)C(=O)O)cc1 (stereo not given) | 102 | 47 | 5 | 213% and 103% | 104 | Hypoglycemic activity (Mus musculus [2]): 41% |
| CC(C)C1CCC(OC(C)(Cc2ccc(Cl)cc2)C(=O)[O-])CC1.[Na+] (stereo not given) | <0 | – | > 10 | – | – | – |
| Cc1ccc(S(=O)(=O)C(Cc2ccc(Cl)cc2)C(=O)O)cc1 (stereo not given) | – | – | > 50 | – | – | Basal uptake (3T3-L1 [5]): 89%; Hypoglycemic activity (Mus musculus [8]): <0% |
| CC(C)c1ccc(OC(C)(Cc2ccc(Cl)cc2)c2nnn[nH]2)cc1 (stereo not given) | <0 | – | 10 | 159% and 105% | 105 | – |
| CC(Cc1ccc(Cl)cc1)(Oc1ccc(Oc2ccccc2)cc1)C(=O)O (stereo not given) | 108 | 100 | < 1 | – | – | Hypoglycemic activity (Mus musculus [2]): 60% |
| CCc1cccc(CC(C)(Oc2ccc(C3CCSc4ccccc43)cc2)C(=O)[O-])c1.[Na+] (stereo not given) | 35 | – | > 10 | – | 113 | Basal uptake (3T3-L1 [7]): 116% and 104% |
| CC(C)c1ccc(OC(C)(Cc2ccc(Cl)c(Cl)c2)C(=O)O)cc1 (stereo not given) | 111 | 24 | 5 | – | – | Hypoglycemic activity (Mus musculus [2]): 0% |
| COc1ccc(CC(C)(Oc2ccc(C(C)C)cc2)C(=O)O)cc1 (stereo not given) | 41 | – | > 10 | – | – | – |
| CC(C)c1ccc2c(c1)CC(Cc1ccc(Cl)cc1)(C(=O)O)O2 (stereo not given) | – | – | > 50 | – | – | Basal uptake (3T3-L1 [5]): 66%; Hypoglycemic activity (Mus musculus [8]): <0% |
| CCCc1ccc(CC(C)(Oc2ccc(C(C)C)cc2)C(=O)NS(=O)(=O)C(F)(F)F)cc1 (stereo not given) | 35 | – | > 10 | – | – | – |
| CC(C)c1ccc(OC(C)(Cc2ccc(Cl)cc2)C(=O)/N=C(\N)NO)cc1 (stereo not given) | 49 | 44 | 10 | – | – | Hypoglycemic activity (Mus musculus [2]): <0% |
| CC(C)c1ccc(OC(C)(CO)Cc2ccc(Cl)cc2)cc1 (stereo not given) | <0 | – | 10 | 118% | 121 | Basal uptake (3T3-L1 [7]): 118% |
| Cc1ccc(CC(C)(Oc2ccc(C(C)C)cc2)C(=O)[O-])cc1.[Na+] (stereo not given) | 106 | 100 | < 1 | – | – | Basal uptake (3T3-L1 [9]): 92%; Hypoglycemic activity (Mus musculus [2]): 58% |
| Cc1cccc(CC(C)(Oc2ccc(C(C)C)cc2)C(=O)[O-])c1.[Na+] (stereo not given) | 83 | 83 | < 1 | 84% | 98 | Basal uptake (3T3-L1 [7]): 93%; Hypoglycemic activity (Mus musculus [2]): 63% |
| COc1ccc(Cc2ccc(OC(C)(Cc3ccc(Cl)cc3)C(=O)[O-])cc2)cc1.[Na+] (stereo not given) | 74 | – | < 10 | – | – | – |
| CC(Cc1ccc(Cl)cc1)(Oc1ccc(C2CCSCC2)cc1)C(=O)[O-].[Na+] (stereo not given) | 64 | – | < 10 | – | – | Basal uptake (3T3-L1 [5]): 108% |

| SMILES | Hypoglycemic activity (Mus musculus [1]) [%] | Hypoglycemic activity (Mus musculus [3]) [%] | ED50 (Rattus norvegicus; [10]) [mg/kg] | Basal uptake (3T3-L1 [4]) | Basal uptake (3T3-L1 [6]) [%] | other results |
| --- | --- | --- | --- | --- | --- | --- |
| COc1ccccc1CC(Oc1ccc(C(C)C)cc1)C(=O)O (stereo not given) | <0 | – | > 10 | – | – | Basal uptake (3T3-L1 [5]): 78% |
| CC(Cc1ccc(Cl)cc1)(Oc1ccc(Br)cc1)C(=O)O (stereo not given) | 22 | – | < 1 | 134% | 109 | Basal uptake (3T3-L1 [7]): 120% |
| CC(C)c1ccc(OC(C)(Cc2ccc(Cl)cc2)C(=O)NS(C)(=O)=O)cc1 (stereo not given) | – | 0 | 5 | 255% | 100 | Basal uptake (3T3-L1 [5]): 200%; Hypoglycemic activity (Mus musculus [1]; 10 mg/kg): 96% and 100% |
| COc1ccc(Cl)cc1C(=O)NCCc1ccc(CC(C)(Oc2ccc(C(C)C)cc2)C(=O)O)cc1 (stereo not given) | 24 | – | > 10 | – | – | – |
| CC(C)c1ccc(OC(C(=O)O)C(C)c2ccc(Cl)cc2)cc1 (stereo not given) | 17 | – | > 10 | – | – | Basal uptake (3T3-L1 [5]): 111% |
| Cc1ccccc1S(=O)(=O)NC(=O)C(C)(Cc1ccc(Cl)cc1)Oc1ccc(C(C)C)cc1 (stereo not given) | <0 | – | > 10 | 232% and 126% | 251 | – |
| CC(C)c1ccc(OC(C)(Cc2ccc(Cl)cc2)C(=N)NO)cc1 (stereo not given) | 27 | – | > 10 | – | – | – |
| CCc1ccc(CC(C)(Oc2ccc(Oc3ccccc3)cc2)C(=O)O)cc1 (stereo not given) | 130 | 113 | 1 | – | – | Hypoglycemic activity (Mus musculus [2]): 48% |
| CC(C)c1ccc(OC(C)(Cc2ccc(Cl)cc2)C(=O)CO)cc1 (stereo not given) | 32 | – | > 10 | – | – | – |
| CC(Cc1ccc(Cl)cc1)(Oc1ccc(Cc2ccc(Cl)cc2)cc1)C(=O)[O-].[Na+] (stereo not given) | <0 | – | > 10 | 112% and 90% | 94 | – |
| CCCCc1ccc(CC(C)(Oc2ccc(C(C)C)cc2)C(=O)[O-])cc1.[Na+] (stereo not given) | 130 | 92 | 1 | 200% | 94 | Basal uptake (3T3-L1 [7]): 82%; Hypoglycemic activity (Mus musculus [2]): 17% |
| CCC(Cc1ccc(Cl)cc1)(Oc1ccc(C(C)C)cc1)C(=O)[O-].[Na+] (stereo not given) | – | 36 | > 5 | – | – | Basal uptake (3T3-L1 [9]): 156% |
| CC(C)c1ccc2c(c1)C(c1ccc(Cl)cc1)C(C(=O)O)O2 (stereo not given) | – | – | > 50 | – | – | Basal uptake (3T3-L1 [5]): 89%; Hypoglycemic activity (Mus musculus [8]): 25% |
| COc1ccc(S(=O)(=O)NC(=O)C(C)(Cc2ccc(Cl)cc2)Oc2ccc(C(C)C)cc2)cc1 (stereo not given) | 22 | – | > 10 | 154% | 101 | Basal uptake (3T3-L1 [5]): 67% |
| CCCCc1cccc(CC(C)(Oc2ccc(C(C)C)cc2)C(=O)[O-])c1.[Na+] (stereo not given) | 91 | 85 | 1 | 113% | 129 | Hypoglycemic activity (Mus musculus [2]): <0% |
| CC(Cc1ccc(Cl)cc1)(Oc1ccccc1Cc1ccc(Cl)cc1)C(=O)[O-].[Na+] (stereo not given) | 52 | – | 10 | 97% and 100% | 88 | – |
| CCCc1ccc(CC(C)(Oc2ccc(Cc3ccccc3)cc2)C(=O)[O-])cc1.[Na+] (stereo not given) | 96 | 91 | 1 | – | – | Hypoglycemic activity (Mus musculus [2]): 24% |
| COc1ccccc1CC(C)(Oc1ccc(C(C)C)cc1)C(=O)O (stereo not given) | <0 | – | > 10 | 122% | 100 | Basal uptake (3T3-L1 [5]): 120% |
| CCc1ccccc1CC(C)(Oc1ccc(C(C)C)cc1)C(=O)[O-].[Na+] (stereo not given) | 95 | 53 | 5 | – | – | Hypoglycemic activity (Mus musculus [2]): 32% |
| CC(C)c1ccc(OC(C(=O)[O-])C(C)c2ccc(Cl)cc2)cc1.[Na+] (stereo not given) | 41 | – | > 10 | – | – | Basal uptake (3T3-L1 [5]): 98% |
| CC(C)c1ccc(OC(C)(C(=O)O)C(C)c2ccc(Cl)cc2)cc1 (stereo in doubt; 85) | – | – | – | 131% | 128 | Basal uptake (3T3-L1 [5]): 209%; Hypoglycemic activity (Mus musculus [1]; 10 mg/kg): 46%; ED50 (Rattus norvegicus): >10 mg/kg |
| CC(C)c1ccc(OC(C)(C(=O)O)C2CCc3cc(Cl)ccc32)cc1 (stereo in doubt; 100) | – | 78 | – | 89% | 83 | Basal uptake (3T3-L1 [7]): 85%; Hypoglycemic activity (Mus musculus [1]; 10 mg/kg): 105%; Hypoglycemic activity (Mus musculus [2]): 14%; ED50 (Rattus norvegicus): 1 mg/kg |
| CC(C)c1ccc(OC(C)(C(=O)O)C2CCc3cc(Cl)ccc32)cc1 (stereo in doubt; 101) | – | – | – | 85% | 86 | Basal uptake (3T3-L1 [7]): 71%; Hypoglycemic activity (Mus musculus [1]; 10 mg/kg): 35%; ED50 (Rattus norvegicus): >10 mg/kg |
